Read-outs that look alike come from different tables or passages of the source. Marks after values point to notes of the source that are not given here.

25 compounds from publication PMC7765920 (Molecules, 2020) can be followed below.

Type in all cases: biochemical
Experiment [1] has as its target T1, GST-DYRK1A-ΔC (amino acids 1–499 of rat DYRK1A) (Rattus norvegicus, UniProt Q63470).
T1 construct: containing amino acids 1–499 of rat DYRK1A; made in house; host or cells: E. coli
Put plainly: Kinase-GLO luminescent assay of DYRK1A catalytic activity. The conditions noted are these: for remaining activity at 1 µM: read-out: DYRK1A residual activity. The protocol: (§1) Optimization of the compounds, however, aimed predominantly at elimination of MAO-A-inhibitory activity while keeping DYRK1A inhibitory potency, and not at achieving high selectivity for DYRK1A over CLK1. The tests were performed as described by us before in detail. Due to the very large number of test compounds (more than 60), a first screening was performed at a single inhibitor concentration of 1 µM.
(§2) Inhibitors were dissolved in DMSO at a concentration of 10 mM and stored at […]. Working solutions were prepared to achieve a final concentration of 1 µM in the enzyme assays.
(§3) Recombinant kinases were purified from E. coli as GST (glutathione S-transferase) fusion constructs by affinity adsorption to glutathione-Sepharose. […] Catalytic activity of the kinases was measured with the help of the Kinase-GLO^TM Luminescent Assay from Promega. Assays were performed in a total volume of 10 μL in kinase buffer (25 mM Hepes pH 7.4, 0.5 mM DTT, 5 mM MgCl2, 5 μM ATP) with appropriate peptide substrates (20 μM DYRKtide for the DYRKs and 100 μM DYRKtide for HIPK2, […]; or 100 μM RS peptide for CLK1, […]). Kinases amounts in the assays were adjusted so that approximately 90% of the ATP in the assay was consumed in control samples without inhibitor. Kinase reactions were incubated at room temperature for 30 min before 10 μL Kinase-GLO reagent was added for luminometric measurement of the ATP that was not consumed by the kinases. After incubation at room temperature for an additional 10 min, luminescence was recorded for 1 s (Berthold Orion Microplate Luminometer). ATP consumption in the control samples without inhibitor was set as 100% catalytic activity, and the inhibitory effects of the test compounds were calculated relative to this value.
(In Kinase-Glo more light means more ATP remaining.)

In experiment [2] the target is T2, human recombinant MAO-A (Homo sapiens, UniProt P21397).
T2 sequence (P21397 1-527): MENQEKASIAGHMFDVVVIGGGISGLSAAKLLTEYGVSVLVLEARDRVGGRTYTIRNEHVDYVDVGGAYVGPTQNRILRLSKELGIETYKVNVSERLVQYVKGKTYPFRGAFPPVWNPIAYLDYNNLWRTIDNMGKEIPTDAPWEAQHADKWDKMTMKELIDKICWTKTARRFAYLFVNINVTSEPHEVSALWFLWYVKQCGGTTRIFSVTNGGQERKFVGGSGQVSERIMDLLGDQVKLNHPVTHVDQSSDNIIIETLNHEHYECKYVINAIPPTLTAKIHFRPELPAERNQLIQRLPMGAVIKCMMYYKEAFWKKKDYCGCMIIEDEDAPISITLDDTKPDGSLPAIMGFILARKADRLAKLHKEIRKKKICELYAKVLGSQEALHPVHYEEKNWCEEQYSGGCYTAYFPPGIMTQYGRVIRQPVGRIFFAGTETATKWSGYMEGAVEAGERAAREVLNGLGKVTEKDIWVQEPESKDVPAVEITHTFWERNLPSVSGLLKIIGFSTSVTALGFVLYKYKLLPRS
Put plainly: MAO-GLO luminescence assay of MAO-A catalytic activity. The conditions noted are these: for remaining activity at 1 µM: read-out: MAO-A residual activity. As to the method: as §1, §2
Catalytic activity of monoamine oxidase A (MAO-A) was measured by using the luminescence-based MAO-GLO^TM Assay from Promega. Recombinant MAO-A converts a luminogenic MAO substrate into luciferin, which is, in turn, luminometrically detected in a luciferase reaction. The amount of light produced is directly proportional to MAO activity. […] Inhibitory effects of the tested compounds were calculated relative to the activity of control reactions that were run in the absence of inhibitors.

Experiment [3] concerns the target T3, GST-CLK1cat (amino acids 141–484 of human CLK1) (Homo sapiens, UniProt P49759).
T3 construct: containing amino acids 141–484 of human CLK1; made in house; host or cells: E. coli
Put plainly: Kinase-GLO luminescent assay of CLK1 catalytic activity. The conditions noted are these: for remaining activity at 1 µM: read-out: CLK1 residual activity. The protocol: as §1, §2, §3

[4] abbreviates: 1 µM inhibitor concentration, residual activity relative to control without inhibitor.

T3 sequence (P49759 141-484): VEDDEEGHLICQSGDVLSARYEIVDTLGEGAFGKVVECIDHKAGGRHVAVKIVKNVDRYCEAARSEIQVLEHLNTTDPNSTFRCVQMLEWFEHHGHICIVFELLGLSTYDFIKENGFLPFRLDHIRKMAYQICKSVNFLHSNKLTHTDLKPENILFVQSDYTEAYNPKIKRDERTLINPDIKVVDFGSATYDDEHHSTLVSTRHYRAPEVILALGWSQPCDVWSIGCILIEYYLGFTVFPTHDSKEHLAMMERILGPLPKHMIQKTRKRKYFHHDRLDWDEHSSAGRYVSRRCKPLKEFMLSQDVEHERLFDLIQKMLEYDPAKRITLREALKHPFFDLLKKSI

Turning to harmol [reference compound], the DYRK1A residual activity in experiment [1] (setting [4]) was found to be 18%. Further, the MAO-A residual activity in experiment [2] (setting [4]) was 120%. The CLK1 residual activity in experiment [3] (setting [4]) was 6 *** %.

In the case of `COc1ccc2c3ccnc(C)c3n(CCOc3ccccc3)c2c1` [AnnH40, 7-Methoxy-1-methyl-9-(2-phenoxyethyl)-9H-pyrido[3,4-b]indole], the results for the remaining activity at 1 µM in experiment [1] (setting [4]), in experiment [2] (setting [4]) and in experiment [3] (setting [4]) were 40%, 30% and 37%, respectively.

Turning to `Clc1ccc2c([nH]c3c(Br)nccc32)c1Cl` [AnnH52, 1-Bromo-7,8-dichloro-9H-pyrido[3,4-b]indole], the results for the remaining activity at 1 µM in experiment [1] (setting [4]), in experiment [2] (setting [4]) and in experiment [3] (setting [4]) were 36%, 118% and 45%, respectively.

Consider `CCCCn1c2c(C)nccc2c2ccc(OC)c(Cl)c21` [AnnH11, 9-Butyl-8-chloro-7-methoxy-1-methyl-9H-pyrido[3,4-b]indole], for which the remaining activity at 1 µM in experiment [1] (setting [4]) stood at 104%; in experiment [2] (setting [4]) it was 4%; in experiment [3] (setting [4]), 60%.

`CCOC(=O)CCn1c2cc(OC)ccc2c2ccnc(C)c21` [AnnH32, Ethyl 3-(7-Methoxy-1-methyl-9H-pyrido[3,4-b]indol-9-yl)propanoate]: the remaining activity at 1 µM in experiment [1] came to 12%; in experiment [2], 105%; in experiment [3], 44%.

As to `C#CCn1c2c(Br)nccc2c2ccc(Cl)c(Cl)c21` [AnnH80, 1-Bromo-7,8-dichloro-9-(prop-2-yn-1-yl)-9H-pyrido[3,4-b]indole], the remaining activity at 1 µM was 95% in experiment [1] (setting [4]), 123% in experiment [2] (setting [4]) and 84% in experiment [3] (setting [4]).

In the case of `COc1ccc2c(c1)C(=O)c1c-2ccnc1C` [AnnHT2, 7-Methoxy-1-methyl-9H-indeno-[2,1-c]pyridin-9-one], the remaining activity at 1 µM in experiment [1] (setting [4]) was found to be 55%; in experiment [2] (setting [4]) it was 15%; in experiment [3] (setting [4]), 54%.

Regarding `COc1ccc2c3ccnc(C)c3n(C(C)=O)c2c1` [AnnH59, 1-(7-Methoxy-1-methyl-9H-pyrido[3,4-b]indol-9-yl)ethan-1-one], the remaining activity at 1 µM in experiment [1] (setting [4]) was found to be 30%; in experiment [2] (setting [4]), 19%; in experiment [3] (setting [4]) it was 15%.

For the compound `COc1ccc2c3ccnc(C)c3n(Cc3ccc4ccccc4c3)c2c1` [AnnH39, 7-Methoxy-1-methyl-9-(2-naphthylmethyl)-9H-pyrido[3,4-b]indole], the results for the remaining activity at 1 µM in experiment [1] (setting [4]), in experiment [2] (setting [4]) and in experiment [3] (setting [4]) were 91%, 125% and 84%, respectively.

For the compound `CCCCn1c2cc(OC)c(Cl)cc2c2ccnc(C)c21` [AnnH14, 9-Butyl-6-chloro-7-methoxy-1-methyl-9H-pyrido[3,4-b]indole], the remaining activity at 1 µM in experiment [1] (setting [4]) worked out at 94%; in experiment [2] (setting [4]), 56%; in experiment [3] (setting [4]), 62%.

For the compound `CCc1nccc2c1[nH]c1cc(OC)ccc12` [AnnH89, 1-Ethyl-7-methoxy-9H-pyrido[3,4-b]indole], the remaining activity at 1 µM in experiment [1] (setting [4]) worked out at 37%; in experiment [2] (setting [4]), 34%; in experiment [3] (setting [4]), 7%.

For `COc1ccc2c3ccnc(C)c3n(CC=C(C)C)c2c1` [AnnH73, 7-Methoxy-1-methyl-9-(3-methylbut-2-en-1-yl)-9H-pyrido[3,4-b]indole], the remaining activity at 1 µM was determined as 6% in experiment [1], 52% in experiment [2] and 2% in experiment [3].

For the compound `COc1ccc2c(c1)[nH]c1c(C)cccc12` [AnnHOG3, 7-Methoxy-1-methyl-9H-carbazole], the remaining activity at 1 µM in experiment [1] (setting [4]) worked out at 71%; in experiment [2] (setting [4]), 100%; in experiment [3] (setting [4]), 97%.

In experiment [1] (setting [4]), “7-Methoxy-1-methyl-9-(prop-2-yn-1-yl)-9H-pyrido[3,4-b]indole [AnnH70]” returned a DYRK1A residual activity of 6%. Further, in experiment [2] (setting [4]), the MAO-A residual activity is recorded as 18%. Also, the CLK1 residual activity in experiment [3] (setting [4]) was 17 *** %.

Take `COc1ccc2c3ccnc(C)c3n(CCC#N)c2c1` [AnnH42, 3-(7-Methoxy-1-methyl-9H-pyrido[3,4-b]indol-9-yl)propanenitrile]: the remaining activity at 1 µM turned out to be 22% in experiment [1] (setting [4]), 114% in experiment [2] (setting [4]) and 44% in experiment [3] (setting [4]).

With `N#CCn1c2c(Br)nccc2c2ccc(Cl)c(Cl)c21` [AnnH79, 2-(1-Bromo-7,8-dichloro-9H-pyrido[3,4-b]indol-9-yl)-acetonitrile], the remaining activity at 1 µM was determined as 93% in experiment [1] (setting [4]), 143% in experiment [2] (setting [4]) and 88% in experiment [3] (setting [4]).

Regarding `COc1ccc2c3ccnc(C)c3n(C/C=C/c3ccccc3)c2c1` [AnnH22, 7-Methoxy-1-methyl-9-((E)-3-phenylallyl)-9H-pyrido[3,4-b]indole], the remaining activity at 1 µM in experiment [1] (setting [4]) was 3%; in experiment [2] (setting [4]), 39%; in experiment [3] (setting [4]), 15%.

Consider `CCOC(=O)Cn1c2cc(OC)ccc2c2ccnc(CC)c21` [AnnH88, Ethyl 2-(1-ethyl-7-methoxy-9H-pyrido[3,4-b]indol-9-yl)acetate], for which the remaining activity at 1 µM in experiment [1] (setting [4]) worked out at 47%; in experiment [2] (setting [4]), 137%; in experiment [3] (setting [4]), 52%.

In the case of `COc1ccc2c(c1)[nH]c1c(/C=C/c3ccccc3)nccc12` [AnnH18], the remaining activity at 1 µM is 27% in experiment [1] (setting [4]), 100% in experiment [2] (setting [4]) and 58% in experiment [3] (setting [4]).

As for `CCOC(=O)Cn1c2c(C)nccc2c2ccc(Cl)c(Cl)c21` [AnnH66, Ethyl 2-(7,8-Dichloro-1-methyl-9H-pyrido[3,4-b]-9-yl)acetate], the figures for the remaining activity at 1 µM in experiment [1] (setting [4]), in experiment [2] (setting [4]) and in experiment [3] (setting [4]) were 26%, 78% and 71%, respectively.

For `COc1ccc2c3ccnc(C)c3n(CC(=O)OC(C)C)c2c1` [AnnH27, Isopropyl 2-(7-methoxy-1-methyl-9H-pyrido[3,4-b]indol-9-yl)acetate], the values for the remaining activity at 1 µM in experiment [1] (setting [4]), in experiment [2] (setting [4]) and in experiment [3] (setting [4]) were 4%, 72% and 79%, respectively.

Take `COc1ccc2c3ccnc(C)c3n(Cc3ccncc3)c2c1` [AnnH36, 7-Methoxy-1-methyl-9-(pyridin-4-yl-methyl)-9H-pyrido[3,4-b]indole]: the remaining activity at 1 µM worked out at 59% in experiment [1] (setting [4]), 19% in experiment [2] (setting [4]) and 62% in experiment [3] (setting [4]).

`COc1ccc2c3ccnc(C)c3n(CCN3CCCC3)c2c1` [AnnH55, 7-Methoxy-1-methyl-9-[2-(pyrrolidin-1-yl)ethyl]-9H-pyrido[3,4-b]indole]: the remaining activity at 1 µM came out at 48% in experiment [1] (setting [4]), 67% in experiment [2] (setting [4]) and 85% in experiment [3] (setting [4]).

With `CNC(=O)Cn1c2cc(OC)ccc2c2ccnc(C)c21` [AnnH30, 2-(7-Methoxy-1-methyl-9H-pyrido[3,4-b]indol-9-yl)-N-methylacetamide], the remaining activity at 1 µM worked out at 64% in experiment [1] (setting [4]), 24% in experiment [2] (setting [4]) and 87% in experiment [3] (setting [4]).

With `COc1ccc2c(c1)/C(=C\C#N)c1c-2ccnc1C` [AnnHT5, (2E)-(7-Methoxy-1-methyl-9H-indeno[2,1c]pyridin-9-ylidene)ethanenitrile], the remaining activity at 1 µM amounted to 35% in experiment [1] (setting [4]), 65% in experiment [2] (setting [4]) and 7% in experiment [3] (setting [4]).
